Reference: patent US6630472B1, “Compounds, pharmaceutical compositions, and methods for stimulating neuronal growth and elongation” (priority 1998, dated 2003)

What follows are compounds tested against FKBP12 (Homo sapiens, UniProt P62942) (assay: rotamase inhibition assay (N-succinyl-Ala-Ala-Pro-Phe-p-nitroanilide, chymotrypsin-coupled)). Settings: @ 2.5 μM.
Type: biochemical
Experimental: In the rotamase inhibition assay, isomerization of an artificial substrate N-succinyl-Ala-Ala-Pro-Phe-p-nitroanilide is followed spectrophotometrically. The assay includes the cis form of the substrate, FKBP12, the compound being tested, and chymotrypsin. Chymotrypsin is able to cleave p-nitroaniline from the trans form of the substrate, but not from the cis form. Release of p-nitroaniline is measured spectrophotometrically. Using this assay, various amounts of the FKBP rotamase-inhibiting compounds of formula (I-a) or (I-b) were added to cis-N-succinyl-alanine-alanine-proline-phenylalanine-para-nitroaniline (Bachem, 3132 Kashiwa Street, Torrance, Calif. 90505) in the presence of FKBP12 and chymotrypsin. Spectrophotometric measurements of p-nitroaniline concentrations allowed estimation of the apparent Ki values, which are provided in Table 1 below.

Chain of FKBP12 (P62942 whole entry, species assumed): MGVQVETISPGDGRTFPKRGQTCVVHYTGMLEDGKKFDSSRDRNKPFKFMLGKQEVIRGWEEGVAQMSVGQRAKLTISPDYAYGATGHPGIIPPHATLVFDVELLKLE

SMILES	inhibition at 2.5 µM [%]
CCCC(CCC)C(=O)OC[C@@H](CN1CC2CCCC(C1=O)N2C(=O)C(=O)C(C)(C)CC)OCc1ccccc1 (stereo partly drawn) [Compound 55]	40
CCCC(CCC)C(=O)OC[C@H](CN1CC2CCCC(C1=O)N2C(=O)C(=O)C(C)(C)CC)OCc1ccccc1 (stereo partly drawn) [Compound 56]	40

Same assay, conditions: apparent Ki; NI = no inhibition at the concentrations tested; read-out: Rotamase Ki(app)

SMILES	Ki [µM]
COc1cc(C(=O)C(=O)N2C3CCCC2C(=O)N(CCOCc2ccccc2)C3)cc(OC)c1OC (stereo not drawn) [Compound 7]	0.16
COc1cccc2c1CCN1C(=O)C3CCCC(C21)N3C(=O)C(=O)c1cc(OC)c(OC)c(OC)c1 (stereo not drawn) [Compound 12]	0.027
COc1cc(C(=O)C(=O)N2C3CCCC2C(=O)N(CCCCc2ccccc2)C3)cc(OC)c1OC (stereo not drawn) [Compound 33]	0.227
COc1cc(C(=O)C(=O)N2C3CCCC2C(=O)N(Cc2ccccc2)C3=O)cc(OC)c1OC [Compound 34]	0.206
COc1cc(C(=O)C(=O)N2C3CCCC2C(=O)N(CCCCc2ccccc2)C3=O)cc(OC)c1OC [Compound 35]	0.073
CCC(C)(C)C(=O)C(=O)N1C2CCCC1C(=O)N(CCCCc1ccccc1)C2=O [Compound 36]	0.445
COc1cc(C(=O)C(=O)N2C3CCCC2C(OC)N(CCCCc2ccccc2)C3=O)cc(OC)c1OC (stereo not drawn) [Compound 37]	0.222
COc1cc(C(=O)C(=O)N2C3CCCC2C(=O)N(CCCCCc2ccccc2)C3=O)cc(OC)c1OC [Compound 38]	0.298
O=C1C2CCCC(CN1CCOCc1ccccc1)N2C(=O)C(=O)C12CC3CC(CC(C3)C1)C2 (stereo not drawn) [Compound 40]	0.69
COc1cc(C(=O)C(=O)N2C3CCCC2C(=O)N(C2CCCC2)C3=O)cc(OC)c1OC [Compound 41]	5.8
COc1cc(C(=O)C(=O)N2C3CCCC2C2OCC(COCc4ccccc4)N2C3=O)cc(OC)c1OC (stereo not drawn) [Compound 42]	2.2
COc1cc(C(=O)C(=O)N2C3CCCC2C(=O)N(C2CCCCC2)C3)cc(OC)c1OC (stereo not drawn) [Compound 44]	3
COc1cc(C(=O)C(=O)N2C3CCCC2C(=O)N(C[C@H](CO)OCc2ccccc2)C3)cc(OC)c1OC (stereo partly drawn) [Compound 45]	0.58
CCCC(CCC)C(=O)OC[C@@H](CN1CC2CCCC(C1=O)N2C(=O)C(=O)c1cc(OC)c(OC)c(OC)c1)OCc1ccccc1 (stereo partly drawn) [Compound 46]	0.448
CCCC(CCC)C(=O)OC[C@H](CN1CC2CCCC(C1=O)N2C(=O)C(=O)c1cc(OC)c(OC)c(OC)c1)OCc1ccccc1 (stereo partly drawn) [Compound 47]	0.2
COc1cc(C(=O)C(=O)N2C3CCCC2C(=O)N(C[C@@H](CO)OCc2ccccc2)C3)cc(OC)c1OC (stereo partly drawn) [Compound 50]	0.56
COc1cc(C(=O)C(=O)N2C3CCCC2C(=O)N(C(CO)COCc2ccccc2)C3)cc(OC)c1OC (stereo not drawn) [Compound 51]	4
COc1cc(C(=O)C(=O)N2C3CCCC2C(=O)N(C(COCc2ccccc2)COC(C)=O)C3)cc(OC)c1OC (stereo not drawn) [Compound 53]	5
CC(C)[C@@H]1CC[C@@H](C)[C@](C)(C(=O)C(=O)N2C3CCCC2C(=O)N(CCOCc2ccccc2)C3)C1 (stereo partly drawn) [Compound 54]	6
CCC(C)(C)C(=O)C(=O)N1C2CCCC1C(=O)N(C1CCCCC1)C2 (stereo not drawn) [Compound 57]	74
CCC(C)(C)C(=O)C(=O)N1C2CCCC1C(=O)N(C[C@H](CO)OCc1ccccc1)C2 (stereo partly drawn) [Compound 58]	3
CCC(C)(C)C(=O)C(=O)N1C2CCCC1C(=O)N(C[C@@H](CO)OCc1ccccc1)C2 (stereo partly drawn) [Compound 59]	3.8
CC(=O)OCC(C)(C)C(=O)C(=O)N1C2CCCC1C(=O)N(CCCCc1ccccc1)C2 (stereo not drawn) [Compound 60]	3

SMILES	Ki [µM]
CCC(CC)(COC(C)=O)C(=O)C(=O)N1C2CCCC1C(=O)N(CCCCc1ccccc1)C2 (stereo not drawn) [Compound 61]	0.79
CC(=O)OCC1(C(=O)C(=O)N2C3CCCC2C(=O)N(CCCCc2ccccc2)C3)CCCC1 (stereo not drawn) [Compound 62]	0.16
COCOCC(C)(C)C(=O)C(=O)N1C2CCCC1C(=O)N(CCCCc1ccccc1)C2 (stereo not drawn) [Compound 63]	3.1
CCC(CC)C(=O)C(=O)N1C2CCCC1C(=O)N(CCCCc1ccccc1)C2 (stereo not drawn) [Compound 68]	2.5
CCC(C)(C)C(=O)C(=O)N1C2CCCC1C(=O)N(C1CCCC1)C2 (stereo not drawn) [Compound 69]	33
C=CCC(CC=C)C(=O)OC[C@H](CN1CC2CCCC(C1=O)N2C(=O)C(=O)C(C)(C)CC)OCc1ccccc1 (stereo partly drawn) [Compound 70]	0.89
COc1cc(C(=O)C(=O)N2C3CCCC2C(=O)N([C@H]2CCC[C@@H]2OCc2ccccc2)C3)cc(OC)c1OC (stereo partly drawn) [Compound 71]	4.7
COc1cc(C(=O)C(=O)N2C3CCCC2C(=O)N([C@H]2CCC[C@@H]2OCc2ccccc2)C3)cc(OC)c1OC (stereo partly drawn) [Compound 72]	0.24
C=CCC(CC=C)C(=O)OC[C@H](CN1CC2CCCC(C1=O)N2C(=O)C(=O)c1cc(OC)c(OC)c(OC)c1)OCc1ccccc1 (stereo partly drawn) [Compound 73]	0.063
COc1ccc2c(c1)C(OC)C1C3CCCC(C(=O)N1C2)N3C(=O)C(=O)c1cc(OC)c(OC)c(OC)c1 (stereo not drawn) [Compound 74]	0.111
C=CCC(CC=C)C(=O)OC[C@@H](CN1CC2CCCC(C1=O)N2C(=O)C(=O)C(C)(C)CC)OCc1ccccc1 (stereo partly drawn) [Compound 75]	0.79
C=CCC(CC=C)C(=O)OC[C@@H](CN1CC2CCCC(C1=O)N2C(=O)C(=O)c1cc(OC)c(OC)c(OC)c1)OCc1ccccc1 (stereo partly drawn) [Compound 76]	0.112
CCC(C)(C)C(=O)C(=O)N1C2CCCC1C(=O)N([C@H]1CCC[C@@H]1OCc1ccccc1)C2 (stereo partly drawn) [Compound 77]	20.5
CCC(C)(C)C(=O)C(=O)N1C2CCCC1C(=O)N([C@H]1CCC[C@@H]1OCc1ccccc1)C2 (stereo partly drawn) [Compound 78]	4.1
CCOC1C2CCCC(C(=O)N1Cc1ccc(OC)cc1)N2C(=O)C(=O)c1cc(OC)c(OC)c(OC)c1 (stereo not drawn) [Compound 79]	0.7
COc1ccc(CN2C(=O)C3CCCC(C2C#N)N3C(=O)C(=O)c2cc(OC)c(OC)c(OC)c2)cc1 (stereo not drawn) [Compound 80]	1.8
CCC(CC)(COC(=O)COC)C(=O)C(=O)N1C2CCCC1C(=O)N(CCCCc1ccccc1)C2 (stereo not drawn) [Compound 81]	1.1
COc1ccc2c(c1)C1C3CCCC(C(=O)N1CC2)N3C(=O)C(=O)C1(COC(C)=O)CCCC1 (stereo not drawn) [Compound 82]	3
CCC(CC)(COCOC)C(=O)C(=O)N1C2CCCC1C(=O)N(CCCCc1ccccc1)C2 (stereo not drawn) [Compound 83]	0.86
COCC(=O)OCC1(C(=O)C(=O)N2C3CCCC2C(=O)N(CCCCc2ccccc2)C3)CCCC1 (stereo not drawn) [Compound 84]	0.134
COCOCC1(C(=O)C(=O)N2C3CCCC2C(=O)N(CCCCc2ccccc2)C3)CCCC1 (stereo not drawn) [Compound 85]	0.324
CC(=O)OCC1(C(=O)C(=O)N2C3CCCC2C(=O)N(CCCCc2ccccc2)C3)CCCCC1 (stereo not drawn) [Compound 86]	1.3
CCC(C)(C)C(=O)C(=O)N1C2CCCC1C1c3cccc(OC)c3CCN1C2=O (stereo not drawn) [Compound 87]	5

SMILES	Ki [µM]
O=C1C2CCCC(CN1CCCCc1ccccc1)N2C(=O)C(=O)C1(O)CCCC1 (stereo not drawn) [Compound 95]	1.2
COc1cc(C(=O)C(=O)N2C3CCCC2C2OCCN2C3=O)cc(OC)c1OC (stereo not drawn) [Compound 96]	1.4
CCC(C)(C)C(=O)C(=O)N1C2CCCC1[C@@H]1OCCN1C2=O (stereo partly drawn) [Compound 97]	9
COCCOC1(C(=O)C(=O)N2C3CCCC2C(=O)N(CCCCc2ccccc2)C3)CCCC1 (stereo not drawn) [Compound 98]	0.772
CO[C@@H](C)[C@@H]1CC[C@@H](C)[C@](O)(C(=O)C(=O)N2C3CCCC2C(=O)N(CCCCc2ccccc2)C3)C1 (stereo partly drawn) [Compound 99]	3.7
COC1(C(=O)C(=O)N2C3CCCC2C(=O)N(CCCCc2ccccc2)C3)CCCC1 (stereo not drawn) [Compound 100]	0.627
COCC(=O)OC1(C(=O)C(=O)N2C3CCCC2C(=O)N(CCCCc2ccccc2)C3)CCCC1 (stereo not drawn) [Compound 101]	1.4
COC(OC)C(=O)OC1(C(=O)C(=O)N2C3CCCC2C(=O)N(CCCCc2ccccc2)C3)CCCC1 (stereo not drawn) [Compound 102]	0.69
COC(COC1(C(=O)C(=O)N2C3CCCC2C(=O)N(CCCCc2ccccc2)C3)CCCC1)OC (stereo not drawn) [Compound 103]	1.2
C=CCC(CC=C)C(=O)OC[C@@H](CN1CC2CCCC(C1=O)N2C(=O)C(=O)C1(COC(=O)COC)CCCC1)OCc1ccccc1 (stereo partly drawn) [Compound 108]	0.061
C=CCC(CC=C)C(=O)OC[C@@H](CN1CC2CCCC(C1=O)N2C(=O)C(=O)C1(COC(C)=O)CCCC1)OCc1ccccc1 (stereo partly drawn) [Compound 109]	0.049
C=CCC(CC=C)C(=O)OC[C@H](CN1CC2CCCC(C1=O)N2C(=O)C(=O)C1(COC(=O)COC)CCCC1)OCc1ccccc1 (stereo partly drawn) [Compound 110]	0.086
C=CCC(CC=C)C(=O)OC[C@H](CN1CC2CCCC(C1=O)N2C(=O)C(=O)C1(COC(C)=O)CCCC1)OCc1ccccc1 (stereo partly drawn) [Compound 111]	0.663
COCOC1(C(=O)C(=O)N2C3CCCC2C(=O)N(CCCCc2ccccc2)C3)CCCC1 (stereo not drawn) [Compound 112]	1
COC(CN1C[C@@H]2[C@H]3CCC[C@@H](C(=O)N2CC1=O)N3C(=O)C(=O)C1(OC)CCCC1)OC [Compound 115]	> 20
COC1(C(=O)C(=O)N2C3CCCC2C2=CN(C4CCCC4)C(=O)CN2C3=O)CCCC1 (stereo not drawn) [Compound 116]	0.96
COc1cc(C(=O)C(=O)N2C3CCCC2C2=CN(C4CCCC4)C(=O)CN2C3=O)cc(OC)c1OC (stereo not drawn) [Compound 117]	0.084
CCC(C)(C)C(=O)C(=O)N1C2CCCC1C1=CN(C3CCCC3)C(=O)CN1C2=O (stereo not drawn) [Compound 118]	1
COCOC1(C(=O)C(=O)N2[C@@H]3CCC[C@H]2C(=O)N2CC(=O)N(CC(OC)OC)C[C@H]32)CCCC1 [Compound 119]	> 40
COC[C@@H]1CC[C@@H](C)[C@](O)(C(=O)C(=O)N2C3CCCC2C(=O)N(CCCCc2ccccc2)C3)C1 (stereo partly drawn) [Compound 120]	2.5
CC(=O)OCC1(C(=O)C(=O)N2C3CCCC2C2=CN(C4CCCC4)C(=O)CN2C3=O)CCCC1 (stereo not drawn) [Compound 121]	0.78
